Experiments:
Format in all cases: in vitro ADME
[1] = Hepatocyte intrinsic clearance assay (metabolic stability), rat hepatocytes; conditions: rat, cryopreserved hepatocytes, Rat Hepatocytes, 1 μM test compound
Procedure, shortened: (§1)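 Cryopreserved pooled hepatocytes (1×10^6 cells/mL final) incubated with 1 μM compound at 37 °C, 5% CO2; samples at 0–120 min quenched in acetonitrile, analysed by LC-MS in duplicate. t1/2 and CLint from ln(% remaining) vs time slope; CLH via well-stirred liver model (fu=1) and EH derived from it.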

rat hepatocytes = assay: as above; conditions: for EH (hepatic extraction ratio): Rat Hepatocytes, well stirred liver model, fu=1; for CLint lower than that of ARI-164 (fold): rat hepatocytes
Procedure, shortened: as §1

[2] = Hepatocyte intrinsic clearance assay (metabolic stability), human hepatocytes; conditions: male, human, cryopreserved pooled hepatocytes, Human Hepatocytes, 1 μM test compound
Procedure, shortened: as §1

human hepatocytes = assay: as above; conditions: Human Hepatocytes; well stirred liver model, fu=1
Procedure, shortened: as §1

[3] = CYP profiling: turnover in human liver microsomes, 30 min, no inhibitor; set-up: % Compound Metabolized at 30 min, No Inhibitor: concentration or dose not given beside the values; conditions: HLMs
Protocol: (§2) In order to investigate the contributions of CYP1A2 and CYP3A4 to the metabolism of the compounds of the present disclosure, human liver microsomes were incubated with the test compounds for 30 minutes in the presence of selective chemical inhibitors furafylline (1A2) and ketoconazole (3A4).

CYP3A4 = target: T1, CYP3A4 (Homo sapiens, UniProt P08684); assay: CYP profiling: human liver microsomes with CYP3A4 inhibitor ketoconazole; set-up: % Compound Metabolized at 30 min, CYP3A4 Inhibitor: concentration or dose not given beside the values; conditions: HLMs; for % Inhibition Relative to Negative Control, 3A4: 30 min
T1 construct: from tissue; host or cells: human liver microsomes
Protocol: as §2

CYP1A2 = target: T2, CYP1A2 (Homo sapiens, UniProt P05177); assay: CYP profiling: human liver microsomes with CYP1A2 inhibitor furafylline; set-up: % Compound Metabolized at 30 min, CYP1A2 Inhibitor: concentration or dose not given beside the values; conditions: HLMs; for % Inhibition Relative to Negative Control, 1A2: 30 min
T2 construct: from tissue; host or cells: human liver microsomes
T2 sequence (P05177 1-516): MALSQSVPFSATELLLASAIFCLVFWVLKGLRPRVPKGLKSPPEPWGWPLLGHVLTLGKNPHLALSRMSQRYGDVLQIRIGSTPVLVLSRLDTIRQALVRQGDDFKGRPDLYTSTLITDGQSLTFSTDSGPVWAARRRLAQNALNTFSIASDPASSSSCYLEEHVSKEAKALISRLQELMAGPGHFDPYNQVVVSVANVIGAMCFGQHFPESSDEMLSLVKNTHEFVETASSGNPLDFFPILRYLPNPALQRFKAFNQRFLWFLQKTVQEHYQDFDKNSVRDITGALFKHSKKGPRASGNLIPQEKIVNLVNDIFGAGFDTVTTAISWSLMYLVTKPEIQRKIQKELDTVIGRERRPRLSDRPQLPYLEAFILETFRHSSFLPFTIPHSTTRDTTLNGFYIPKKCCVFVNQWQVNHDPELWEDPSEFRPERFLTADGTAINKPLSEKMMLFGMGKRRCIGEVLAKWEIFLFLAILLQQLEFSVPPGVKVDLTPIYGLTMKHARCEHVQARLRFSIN
Protocol: as §2

T1 sequence (P08684 whole entry): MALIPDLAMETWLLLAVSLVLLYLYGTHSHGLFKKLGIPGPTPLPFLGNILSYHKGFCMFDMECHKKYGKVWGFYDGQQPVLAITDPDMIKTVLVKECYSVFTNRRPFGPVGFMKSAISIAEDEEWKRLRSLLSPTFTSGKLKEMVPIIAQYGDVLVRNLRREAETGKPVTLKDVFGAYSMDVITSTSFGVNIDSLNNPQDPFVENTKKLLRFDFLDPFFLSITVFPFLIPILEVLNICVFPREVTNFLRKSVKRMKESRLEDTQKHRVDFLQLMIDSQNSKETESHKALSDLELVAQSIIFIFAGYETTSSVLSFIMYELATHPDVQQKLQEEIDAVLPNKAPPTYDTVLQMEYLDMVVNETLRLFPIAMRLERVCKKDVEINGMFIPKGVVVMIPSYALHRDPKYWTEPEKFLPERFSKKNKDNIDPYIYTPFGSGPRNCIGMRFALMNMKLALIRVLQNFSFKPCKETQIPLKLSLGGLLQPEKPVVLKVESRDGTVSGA

SMILES | half-life at 1 μM [1] [h] | hepatocyte CLint at 1 μM [1] [µL/min/1e6 cells] | EH (hepatic extraction ratio) (rat hepatocytes) [%] | half-life at 1 μM [2] [h] | hepatocyte CLint at 1 μM [2] [µL/min/1e6 cells] | EH (hepatic extraction ratio) (human hepatocytes) [%] | % Compound Metabolized at 30 min, No Inhibitor [3] [%] | % Compound Metabolized at 30 min, CYP3A4 Inhibitor (CYP3A4) [%] | % Inhibition Relative to Negative Control, 3A4 (CYP3A4) | % Compound Metabolized at 30 min, CYP1A2 Inhibitor (CYP1A2) [%] | % Inhibition Relative to Negative Control, 1A2 (CYP1A2) | metabolic turnover (in words) [3] | CLint lower than that of ARI-164 (fold) (rat hepatocytes)
CC[C@@H](N)c1csc(C(=O)c2c[nH]c3cc(F)ccc23)n1 [ARI-187, (R)-(4-(1-aminopropyl)thiazol-2-yl)(6-fluoro-1H-indol-3-yl)methanone] | 2.3 | 4.93 | 24.8 | 18.6 | 0.621 | 4.4 | 4 | 3 | 25% | 7 | None |  | 
NC1(c2csc(C(=O)c3c[nH]c4cc(F)ccc34)n2)CC1 [ARI-225, (4-(1-aminocyclopropyl)thiazol-2-yl)(6-fluoro-1H-indol-3-yl)methanone] | 0.5 | 23.2 | 60.8 | 2.3 | 4.96 | 17.8 | 39 | 29 | 26% | 10 | 74% | high turnover | 
CC(C)(N)c1csc(C(=O)c2c[nH]c3cc(F)ccc23)n1 [ARI-226, (4-(2-aminopropan-2-yl)thiazol-2-yl)(6-fluoro-1H-indol-3-yl)methanone] | 1.8 | 6.54 | 30.4 | 3 | 3.85 | 15.8 | 6 | 11 | None | 16 | None | low turnover | slightly lower
N[C@H](c1csc(C(=O)c2c[nH]c3ccccc23)n1)C(F)(F)F [ARI-228] | 0.1 | 112 | 88.2 | 0.2 | 64.4 | 27.6 | 89 | 75 | 16% | 23 | 74% | high turnover | 
N[C@@H](c1csc(C(=O)c2c[nH]c3cc(F)ccc23)n1)C(F)(F)F [ARI-224] | 1.9 | 6.12 | 29.0 | 3 | 3.85 | 15.8 | 9 | 8 | 11% | 7 | 22% | low turnover | slightly lower
O=C(c1nc([C@@H](O)C(F)(F)F)cs1)c1c[nH]c2cc(F)ccc12 [ARI-211] | 3.6 | 3.21 | 17.7 | 1 | 11.3 | 23.6 | 50 | 59 | None | 67 | None |  | 
